Data taken from ChEMBL document CHEMBL1201862, “PubChem BioAssay data set” (2004).
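How tested: cells in 96-well plates exposed to compound for 48 hours at five concentrations. GI50 is the concentration that inhibits growth by half.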 The source made the active and inactive calls. Cut-off read from the data, not from the text of the source: active = GI50 up to about 1.1 µM and inactive = higher.

Assays:
Test in all cases: NCI-60 cell line screen, 48 h
A549 = tested on: A549
ACHN = tested on: ACHN
CAKI-1 = tested on: CAKI-1
CCRF-CEM = tested on: CCRF-CEM
COLO 205 = tested on: COLO 205
DMS-114 = tested on: DMS-114
EKVX = tested on: EKVX
HCC 2998 = tested on: HCC 2998
HCT-116 = tested on: HCT-116
HL-60 = tested on: HL-60
HOP-62 = tested on: HOP-62
HOP-92 = tested on: HOP-92
HT-29 = tested on: HT-29
IGROV-1 = tested on: IGROV-1
K562 = tested on: K562
KM-20L2 = tested on: KM-20L2
KM12 = tested on: KM12
LXFL 529 = tested on: LXFL 529
M14 = tested on: M14
M19-MEL = tested on: M19-MEL
MOLT-4 = tested on: MOLT-4
NCI-H226 = tested on: NCI-H226
NCI-H23 = tested on: NCI-H23
NCI-H460 = tested on: NCI-H460
OVCAR-3 = tested on: OVCAR-3
OVCAR-8 = tested on: OVCAR-8
RPMI-8226 = tested on: RPMI-8226
RXF 393 = tested on: RXF 393
SF-268 = tested on: SF-268
SF-295 = tested on: SF-295
SF-539 = tested on: SF-539
SK-MEL-28 = tested on: SK-MEL-28
SK-MEL-2 = tested on: SK-MEL-2
SK-MEL-5 = tested on: SK-MEL-5
SNB-19 = tested on: SNB-19
SNB-75 = tested on: SNB-75
SR = tested on: SR
SW-620 = tested on: SW-620
TK-10 = tested on: TK-10
UACC-257 = tested on: UACC-257
UACC-62 = tested on: UACC-62
UO-31 = tested on: UO-31
786-0 = tested on: 786-0
A498 = tested on: A498
BT-549 = tested on: BT-549
DU-145 = tested on: DU-145
HCT-15 = tested on: HCT-15
Hs-578T = tested on: Hs-578T
LOX IMVI = tested on: LOX IMVI
MCF7 = tested on: MCF7
MDA-MB-231 = tested on: MDA-MB-231
MDA-MB-435 = tested on: MDA-MB-435
MDA-N = tested on: MDA-N
Malme-3M = tested on: Malme-3M
NCI-H522 = tested on: NCI-H522
NCI/ADR-RES = tested on: NCI/ADR-RES
OVCAR-4 = tested on: OVCAR-4
OVCAR-5 = tested on: OVCAR-5
PC-3 = tested on: PC-3
SK-OV-3 = tested on: SK-OV-3
SN12C = tested on: SN12C
T47D = tested on: T47D
U-251 = tested on: U-251
DLD-1 = tested on: DLD-1
DMS-273 = tested on: DMS-273
HOP-18 = tested on: HOP-18

Measured: GI50

CCOC(=O)C1=C(C)N2CCCOC2(C)C(C(=O)OC)C1c1cccc([N+](=O)[O-])c1 (configuration not stated)
inactive: A549 64.3 µM | ACHN 71.6 µM | CAKI-1 64.9 µM | CCRF-CEM 76.6 µM | COLO 205 > 100 µM | DMS-114 44.8 µM | EKVX 50 µM | HCC 2998 > 100 µM | HCT-116 49.7 µM | HL-60 32.1 µM | HOP-62 99.1 µM | HOP-92 > 100 µM | HT-29 > 100 µM | IGROV-1 > 100 µM | K562 55.2 µM | KM-20L2 > 100 µM | KM12 49.9 µM | LXFL 529 45.7 µM | M14 > 100 µM | M19-MEL > 100 µM | MOLT-4 34.3 µM | NCI-H226 > 100 µM | NCI-H23 > 100 µM | NCI-H460 57.4 µM | OVCAR-3 42.9 µM | OVCAR-8 48 µM | RPMI-8226 35 µM | RXF 393 > 100 µM | SF-268 > 100 µM | SF-295 45.2 µM | SF-539 > 100 µM | SK-MEL-28 > 100 µM | SK-MEL-2 > 100 µM | SK-MEL-5 39.6 µM | SNB-19 > 100 µM | SNB-75 13.6 µM | SR 35.2 µM | SW-620 > 100 µM | TK-10 > 100 µM | UACC-257 86.5 µM | UACC-62 45.6 µM | UO-31 51.6 µM

O=C(CC(c1ccccc1)N1CCCCC1)c1ccccc1 (configuration not stated)
14.9 µM: HCT-15
inactive: 786-0 11.2 µM | A498 15.6 µM | A549 20.5 µM | ACHN 17 µM | BT-549 18.2 µM | CAKI-1 15.7 µM | CCRF-CEM 2.09 µM | COLO 205 20.1 µM | DU-145 15.1 µM | EKVX 17.7 µM | HCC 2998 4.62 µM | HCT-116 7.31 µM | HL-60 12.5 µM | HOP-62 17.7 µM | HOP-92 15 µM | HT-29 13.8 µM | Hs-578T 24.8 µM | IGROV-1 14 µM | K562 1.44 µM | KM12 6.82 µM | LOX IMVI 5.66 µM | M14 21.5 µM | MCF7 2.47 µM | MDA-MB-231 18.9 µM | MDA-MB-435 12.2 µM | MDA-N 12.2 µM | MOLT-4 1.96 µM | Malme-3M 16 µM | NCI-H226 18.4 µM | NCI-H23 16 µM | NCI-H460 13 µM | NCI-H522 12.9 µM | NCI/ADR-RES 22.5 µM | OVCAR-3 11.2 µM | OVCAR-4 18.4 µM | OVCAR-5 17.5 µM | OVCAR-8 15.5 µM | PC-3 15 µM | RPMI-8226 2.49 µM | RXF 393 18 µM | SF-268 16 µM | SF-295 16.5 µM | SF-539 19 µM | SK-MEL-28 17.8 µM | SK-MEL-2 19.8 µM | SK-MEL-5 15.6 µM | SK-OV-3 17.6 µM | SN12C 15.6 µM | SNB-19 19.6 µM | SNB-75 16.6 µM | SR 1.7 µM | SW-620 4.06 µM | T47D 17.9 µM | TK-10 14.2 µM | U-251 9.51 µM | UACC-257 14.4 µM | UACC-62 16.6 µM | UO-31 19.2 µM

Cc1ccc2c(ccc(/C=C\c3cc(C)c4cccnc4c3O)[n+]2C)c1
inactive: 786-0 2.32 µM | A498 14.6 µM | A549 8.43 µM | ACHN 5.65 µM | CAKI-1 5.53 µM | COLO 205 9.89 µM | EKVX 15.9 µM | HCC 2998 1.81 µM | HOP-18 1.81 µM | HOP-62 5.5 µM | IGROV-1 6.24 µM | KM-20L2 2.84 µM | KM12 1.32 µM | Malme-3M 8.41 µM | NCI-H226 1.4 µM | NCI-H23 2.67 µM | NCI-H522 4.34 µM | OVCAR-3 2.01 µM | OVCAR-4 14.4 µM | OVCAR-5 22 µM | SF-268 9.25 µM | SF-295 10 µM | SF-539 1.64 µM | SN12C 2 µM | SNB-19 6.08 µM | SR 2.12 µM | SW-620 1.66 µM | U-251 1.75 µM | UACC-257 11.7 µM | UO-31 15.7 µM
active: CCRF-CEM 0.796 µM | DLD-1 0.849 µM | DMS-114 0.811 µM | DMS-273 0.352 µM | HCT-116 0.61 µM | HL-60 0.454 µM | K562 0.385 µM | LOX IMVI 0.791 µM | LXFL 529 0.3 µM | M14 0.664 µM | MOLT-4 1.05 µM | NCI-H460 0.439 µM | OVCAR-8 0.912 µM | RPMI-8226 0.401 µM | SK-MEL-5 0.372 µM | UACC-62 0.535 µM
